# Assay results taken from ChEMBL document CHEMBL5257071, “Total Synthesis and Biological Evaluation of the Anti-Inflammatory (13R,14S,15R)-13-Hydroxy-14-deoxyoxacyclododecindione” (J Nat Prod, 2023).
# Molecular target: Mothers against decapentaplegic homolog 2/homolog 3 (Homo sapiens, UniProt P84022+Q15796)
# Assay: Inhibition of TGF-beta induced Smad2/3 signaling in human HepG2 cells harboring pRL-EF1alpha, (CAGA)9x-MLP-Luc plasmid assessed as luciferase activity incubated for 24 hrs by Promega reporter rene assay
# Assay type: cell-based
row,SMILES,IC50 [nM]
1,C/C1=C\CCC(C)(O)C(C)OC(=O)Cc2c(Cl)c(O)cc(O)c2C1=O (centres undefined),137
2,C/C1=C\C[C@@H](O)[C@H](C)[C@@H](C)OC(=O)Cc2c(Cl)c(O)cc(O)c2C1=O,236
3,C/C1=C\CCC(C)(C)C(C)OC(=O)Cc2c(Cl)c(O)cc(O)c2C1=O (centres undefined),30
4,C/C1=C\CC[C@H](C)[C@@H](C)OC(=O)Cc2c(Cl)c(O)cc(O)c2C1=O,90
